One block for each compound: values may come before it. Residues, ends and D or L forms follow the SMILES beside them. No end group written: not given here. *: point of attachment. Benzoyl(3-Ph) = O=C(c1cccc(-c2ccccc2)c1)*; Benzoyl(4-Ph) = O=C(c1ccc(-c2ccccc2)cc1)*; Benzoyl(2-Ph) = O=C(c1ccccc1-c1ccccc1)*; Benzoyl(4-OMe) = COc1ccc(C(=O)*)cc1; 2Naphthoyl = O=C(c1ccc2ccccc2c1)*; Bz = O=C(c1ccccc1)*
Assays:
[1] = test system: lung cancer cell line H1299; test: CTG assay, cell viability suppression in lung cancer cell line H1299; format: cell-based; settings: H1299, 100 μM, 48 hours
Method: (§1) After 48 hours, a CellTiter-Glo® (Promega Co., USA) reagent was mixed in the same amount as the cell culture medium and allowed to react in an orbital shaker for 2 minutes. After reaction at room temperature for 10 minutes, the luminescence signal was measured using a luminometer (GloMax®, Promega).

[2] = test system: breast cancer cell line HCC1937; test: MTT assay, proliferation suppression in breast cancer cell line HCC1937; format: cell-based; settings: HCC1937, 100 μM, 72 hours
Method: (§2) After 72 hours, 10 μl of a CellTiter-96® (Promega Co., USA) reagent was added to each well and allowed to react at 5% CO2 and 37° C. After 3 hours, absorbance was measured at 490 nm using a spectrophotometer (SPECTROstar^Nano, BMG).
HCC1937 was used as the breast cancer cell line.
The HCC1937 cell line was treated with Ac-[…], 3-PhPh-[…], 4-MeOPh-[…], 2-PhPh-[…], Ph-[…], and Naphthyl-[…] at a concentration of 100 μM, respectively, and cell proliferation suppression effects were compared after 72 hours.

[3] = test system: blood cancer cell line Jurkat clone E6-1; test: MTT assay, proliferation suppression in blood cancer cell line Jurkat clone E6-1; format: cell-based; settings: Jurkat clone E6-1, 10 μM, 48 hours
Method: as §2
As the blood cancer cell line, Jurkat clone E6-1 was used.
Jurkat clone E6-1 was treated with 4-PhPh-[…], Ac-[…], 3-PhPh-[…], 4-MeOPh-[…], 2-PhPh-[…], Ph-[…], and Naphthyl-[…] at a concentration of 10 μM, respectively, and cell proliferation suppression effects were compared after 48 hours.

[4] = test system: pancreatic cancer cell line CFPAC-1; test: MTT assay, cell viability suppression in pancreatic cancer cell line CFPAC-1; format: cell-based; settings: CFPAC-1, 10 μM, 72 hours
Method: as §2

[5] = test system: colorectal cancer cell line HT29; test: Cell proliferation suppression in colorectal cancer cell line HT29; format: cell-based; settings: HT29, 50 μM, 72 hours
Method: as §1, §2

[6] = test system: lung cancer cell line H820 tumors; test: Tumor growth suppression, nude mice inoculated with lung cancer cell line H820; format: in vivo; settings: H820 in nude mice, 10 mpk, tail vein, 5 times at 3-day intervals and 5 times at 2-day intervals
Method: 200 μl of H820 cells were inoculated once by subcutaneous injection into the flanks of mice at a concentration of 5×10^6 cells/mouse at 1:1 with Matrigel. After it was confirmed that the volume of a tumor mass formed after the inoculation reached 70 to 130 mm^3, random group separation was performed. […]

[7] = test system: CT26 cells induced to express CAGE gene; test: Tumor growth suppression, mice inoculated with CT26 cells induced to express CAGE gene; format: in vivo; settings: CT26 expressing CAGE, 10 mpk tail vein, 7 times at 2-day intervals; for tumor growth suppression compared to the AQTGTGKT administration group: day 14; for tumor volume on day 14 (average): day after 7th administration
Method: (§3) 200 μl of CT26 cells, which were induced to express CAGE gene, were inoculated once by subcutaneous injection into the flanks of mice at a concentration of 1×10^6 cells/mouse. After it was confirmed that the volume of a tumor mass formed after the inoculation reached 70 mm^3, random group separation was performed. A test material was injected to the tail vein 7 times at 2-day intervals at a concentration of 10 mpk, and the start date of administration was set as day 1. The tumor volume was calculated twice a week by measuring the width and length and at the same time, the mouse body weight was measured.

in vitro = settings: human
[8] = test system: breast cancer cell line HCC1806 tumors; test: Tumor growth suppression, mice inoculated with breast cancer cell line HCC1806; format: in vivo, immunodeficient mice; settings: HCC1806, 10 mpk tail vein, 7 times at 2-day intervals; for tumor volume on day 15 (average): 2 days after last administration; for tumor growth suppression compared to the tumor volume of the AQTGTGKT group: day 15
Method: as §3, with “a breast cancer cell line, HCC1806” for “CT26”, “cells,” for “cells, which were induced to express CAGE gene,”, “5×10^6” for “1×10^6”, “70 to 130” for “70”

[9] = Stability in human blood (residual amount over time)
[10] = test system: lung cancer cell line H1975; test: CTG assay, cell viability suppression in lung cancer cell line H1975; format: cell-based; settings: H1975, 10 μM, 72 hours
Method: as §1

[11] = test system: lung cancer cell line H820; test: Cell viability suppression in lung cancer (papillary adenocarcinoma) cell line H820; format: cell-based; settings: H820, 10 μM, 72 hours
Method: as §1, §2

[12] = test system: H1975 lung cancer cells tumors; test: Tumor growth suppression, nude mice inoculated with H1975 lung cancer cells; format: in vivo; settings: H1975 in nude mice, 10 mpk for 14 days
Method: 150 μl of H1975 cells were inoculated once by subcutaneous injection into the flanks of mice at a concentration of 4×10^6 cells/mouse. After it was confirmed that the volume of a tumor mass formed after the inoculation reached 70 to 130 mm^3, random group separation was performed. A test material was injected to the tail vein 5 times at 3-day intervals and 5 times at 2-day intervals.

[13] = test system: breast cancer cell line MDA-MB-231; test: CTG assay, activity of breast cancer cells MDA-MB-231 (amount of ATP); format: cell-based; settings: MDA-MB-231, 100 μM, 48 hours
Method: as §1

half-life at 10 μM (in vitro): 47 to 105 min
Compound: C[C@H](NC(=O)c1ccccc1-c1ccccc1)C(=O)N[C@@H](CCC(N)=O)C(=O)N[C@H](C(=O)NCC(=O)N[C@H](C(=O)NCC(=O)N[C@@H](CCCCN)C(=O)N[C@H](C(=O)O)[C@@H](C)O)[C@@H](C)O)[C@@H](C)O ({Benzoyl(2-Ph)}-AQTGTGKT-OH)
cell viability suppression effect compared to the control (AQTGTGKT) [1]: 20%
cell viability suppression effect compared to the control (AQTGTGKT) [10]: 3%
suppression of proliferation of cells compared to the control (AQTGTGKT) [2]: ~15.9%
suppression of proliferation of cells compared to the control (AQTGTGKT) [3]: ~6.7%
cell proliferation suppression effect compared to the control (AQTGTGKT) [5]: 7%
tumor growth suppression effect compared to the control (AQTGTGKT) [6]: 27%

half-life at 10 μM (in vitro): 47 to 105 min
Compound: C[C@H](NC(=O)c1cccc(-c2ccccc2)c1)C(=O)N[C@@H](CCC(N)=O)C(=O)N[C@H](C(=O)NCC(=O)N[C@H](C(=O)NCC(=O)N[C@@H](CCCCN)C(=O)N[C@H](C(=O)O)[C@@H](C)O)[C@@H](C)O)[C@@H](C)O ({Benzoyl(3-Ph)}-AQTGTGKT-OH)
cell viability suppression effect compared to the control (AQTGTGKT) [1]: 15%
cell viability suppression effect compared to the control (AQTGTGKT) [10]: 33%
cell viability suppression effect compared to the control (AQTGTGKT) [11]: about 12%
suppression of proliferation of cells compared to the control (AQTGTGKT) [2]: ~17.1%
suppression of proliferation of cells compared to the control (AQTGTGKT) [3]: ~6.4%
cell viability suppression effect compared to the control (AQTGTGKT) [4]: 2%
cell proliferation suppression effect compared to the control (AQTGTGKT) [5]: 59%
tumor growth suppression effect compared to the control (AQTGTGKT) [6]: about 16.5%
tumor growth reduction compared to the control (AQTGTGKT) [12]: about 16.5%
tumor volume on day 15 (average) [8]: 944.70 mm^3
tumor growth suppression compared to the tumor volume of the AQTGTGKT group [8]: about 49.86%
tumor growth suppression compared to the AQTGTGKT administration group [7]: about 65.79%
tumor volume on day 14 (average) [7]: 880.35 mm^3

half-life at 10 μM (in vitro): 47 to 105 min
Compound: C[C@H](NC(=O)c1ccc(-c2ccccc2)cc1)C(=O)N[C@@H](CCC(N)=O)C(=O)N[C@H](C(=O)NCC(=O)N[C@H](C(=O)NCC(=O)N[C@@H](CCCCN)C(=O)N[C@H](C(=O)O)[C@@H](C)O)[C@@H](C)O)[C@@H](C)O ({Benzoyl(4-Ph)}-AQTGTGKT-OH)
cell viability suppression effect compared to the control (AQTGTGKT) [1]: about 10%
reduction of activity of cells compared to the control (AQTGTGKT) [13]: about 30%
suppression of proliferation of cells compared to the control (AQTGTGKT) [3]: about 4.8%
cell viability suppression effect compared to the control (AQTGTGKT) [4]: about 12%
cell proliferation suppression effect compared to the control (AQTGTGKT) [5]: about 8%

More lines, now with the values behind:

Compound: C[C@H](NC(=O)c1ccc2ccccc2c1)C(=O)N[C@@H](CCC(N)=O)C(=O)N[C@H](C(=O)NCC(=O)N[C@H](C(=O)NCC(=O)N[C@@H](CCCCN)C(=O)N[C@H](C(=O)O)[C@@H](C)O)[C@@H](C)O)[C@@H](C)O (2Naphthoyl-AQTGTGKT-OH)
cell viability suppression effect compared to the control (AQTGTGKT) [1]: 14%
suppression of proliferation of cells compared to the control (AQTGTGKT) [2]: ~9.5%
suppression of proliferation of cells compared to the control (AQTGTGKT) [3]: ~10.4%
cell viability suppression effect compared to the control (AQTGTGKT) [4]: 3%
cell proliferation suppression effect compared to the control (AQTGTGKT) [5]: 58%
tumor growth suppression effect compared to the control (AQTGTGKT) [6]: 26%
tumor growth suppression compared to the AQTGTGKT administration group [7]: about 62.04%
tumor volume on day 14 (average) [7]: 880.35 mm^3
half-life at 10 μM (in vitro): 47 to 105 min

Compound: C[C@H](NC(=O)c1ccccc1)C(=O)N[C@@H](CCC(N)=O)C(=O)N[C@H](C(=O)NCC(=O)N[C@H](C(=O)NCC(=O)N[C@@H](CCCCN)C(=O)N[C@H](C(=O)O)[C@@H](C)O)[C@@H](C)O)[C@@H](C)O (Bz-AQTGTGKT-OH)
cell viability suppression effect compared to the control (AQTGTGKT) [1]: 18%
suppression of proliferation of cells compared to the control (AQTGTGKT) [2]: ~13.6%
suppression of proliferation of cells compared to the control (AQTGTGKT) [3]: ~10.2%
cell viability suppression effect compared to the control (AQTGTGKT) [4]: 3%
cell proliferation suppression effect compared to the control (AQTGTGKT) [5]: 40%
tumor growth suppression effect compared to the control (AQTGTGKT) [6]: 20%
tumor volume on day 15 (average) [8]: 1133.80 mm^3
tumor growth suppression compared to the tumor volume of the AQTGTGKT group [8]: ~39.82%
half-life at 10 μM [9]: 47 to 105 min

Compound: COc1ccc(C(=O)N[C@@H](C)C(=O)N[C@@H](CCC(N)=O)C(=O)N[C@H](C(=O)NCC(=O)N[C@H](C(=O)NCC(=O)N[C@@H](CCCCN)C(=O)N[C@H](C(=O)O)[C@@H](C)O)[C@@H](C)O)[C@@H](C)O)cc1 ({Benzoyl(4-OMe)}-AQTGTGKT-OH)
cell viability suppression effect compared to the control (AQTGTGKT) [1]: 12%
cell viability suppression effect compared to the control (AQTGTGKT) [10]: 4%
cell viability suppression effect compared to the control (AQTGTGKT) [11]: 10%
suppression of proliferation of cells compared to the control (AQTGTGKT) [2]: ~14.3%
suppression of proliferation of cells compared to the control (AQTGTGKT) [3]: ~4%
cell viability suppression effect compared to the control (AQTGTGKT) [4]: 6%
cell proliferation suppression effect compared to the control (AQTGTGKT) [5]: 48%
tumor volume on day 15 (average) [8]: 812.69 mm^3
tumor growth suppression compared to the tumor volume of the AQTGTGKT group [8]: ~56.86%
half-life at 10 μM (in vitro): 47 to 105 min

Compound: AQTGTGKT [alanine-glutamine-threonine-glycine-threonine-glycine-lysine-threonine, reference compound]
tumor volume on day 15 (average) [8]: 1884.17 mm^3
tumor volume on day 14 (average) [7]: 2573.07 mm^3
half-life at 10 μM [9]: < 1 min

Compound: Ac-AQTGTGKT
cell viability suppression effect compared to the control (AQTGTGKT) [1]: 4.2%
cell viability suppression effect compared to the control (AQTGTGKT) [10]: about 16%
suppression of proliferation of cells compared to the control (AQTGTGKT) [2]: about 11.1%
suppression of proliferation of cells compared to the control (AQTGTGKT) [3]: ~7.9%
cell proliferation suppression effect compared to the control (AQTGTGKT) [5]: 58%

Reference: patent US20230159587A1, “PHARMACEUTICAL COMPOSITION FOR PREVENTING OR TREATING CANCER” (L-BASE CO., LTD., priority 2021, published 2023)
